Measurements taken from US20070072831A1, “Integrase inhibitor compounds” (GILEAD SCIENCES, INC., priority 2005, published 2007).

Key:
HIV-IIIb = assay: Antiviral assay in MT-4 cells infected with HIV-IIIb; format: cell-based; conditions: MT4, 120 h; MT-4 cells, HIV-IIIb, 5 days; read-out: EC50 Range MT-4
Experimental: See: Wolfe, etal J. Virol.
Antiviral Assays in MT2 and MT4 Cells
For the antiviral assay utilizing MT-2 cells, 50 μl of 2× test concentration of 5-fold serially diluted compound in culture medium with 10% FBS was added to each well of a 96-well plate (9 concentrations) in triplicate. MT-2 cells were infected with HIV-IIIb at a multiplicity of infection (m.o.i) of 0.01 for 3 hours. Fifty microliters of infected cell suspension in culture medium with 10% FBS (˜1.5×10^4 cells) was then added to each well containing 50 μl of diluted compound. The plates were then incubated at 37° C. for 5 days. For the antiviral assay utilizing MT-4 cells, 20 μl of 2× test concentration of 5-fold serially diluted compound in culture medium with 10% FBS was added to each well of a 384-well plate (7 concentrations) in triplicate. MT-4 cells were next mixed with HIV-IIIb at an m.o.i. of 0.1 and 20 μl of virus/cell mixture (˜2000 cells) was immediately added to each well containing 20 μl of diluted compound. The plates were then incubated at 37° C. for 5 days. After 5 days of incubation, 100 μl of CellTiter-Glo™ Reagent (catalog # G7571, Promega Biosciences, Inc., Madison, Wis.) was added to each well containing MT-2 cells and 40 μl to each well containing MT-4 cells. Cell lysis was carried out by incubating at room temperature for 10 min and then chemiluminescence was read.

HIV integrase = HIV integrase (Human immunodeficiency virus type 1 group M subtype B, UniProt P04585); assay: biochemical
Experimental: Representative compounds of the invention were tested for biological activity by methods including anti-HIV assay, measuring inhibition of HIV-integrase strand transfer catalysis, and cytotoxicity.
HIV Integrase Assay (IC50 Determination)
The HIV Integrase assay is carried out in Reacti-Bind High Binding Capacity Streptavidin coated plates (Pierce # 15502) in 100 μl reactions. The wells of the plate are rinsed once with PBS. Each well is then coated at room temperature for 1 h with 100 μl of 0.14 μM Donor DNA with the following sequence:
After coating, the plate was washed twice with PBS. 3′processing of the Donor DNA is started by adding 80 μl of Integrase/buffer mixture (25 mM HEPES, pH 7.3, 12.5 mM DTT, 93.75 mM NaCl, 12.5 mM MgCl2, 1.25% Glycerol, 0.3125 uM integrase) to each well. 3′processing is allowed to proceed for 30 min at 37° C., after which, 10 μl of test compound and 10 μl of 2.5 uM DIG-labeled Target DNA with the following sequence:
are added to each well to allow strand transfer to proceed for 30 min at 37° C. The plate is then washed three times with 2×SSC for 5 min and rinsed once with PBS. For detection of integrated product, 100 μl of a 1/2000 dilution of HRP-conjugated anti-DIG antibody (Pierce #31468) are added to each well and incubated for 1 hour. The plate was then washed three times for 5 min each, with 0.05% Tween-20 in PBS. For signal development and amplification, 100 μl of SuperSignal ELISA Femto Substrate (Pierce #37075) are added to each well. Chemiluminescence (in relative light units) is read immediately at 425 nm in the SPECTRAmax GEMINI Microplate Spectrophotometer using the end point mode at 5 sec per well.
For IC50 determinations, eight concentrations of test compounds in a 1/2.2 dilution series are used.

## CCOC(=O)N(C)c1c2c(c(O)c3ncccc13)C(=O)N(Cc1ccc(F)cc1)C2C (centres unmarked) [Compound 114, ethyl 7-(4-fluorobenzyl)-9-hydroxy-6-methyl-8-oxo-7,8-dihydro-6H-pyrrolo[3,4-g]quinolin-5-yl(methyl)carbamate]
HIV-IIIb
  EC50: 60 to 1000 nM
HIV integrase
  IC50: 60 to 1000 nM

## CN(C)CCCS(=O)(=O)N(C)c1c2c(c(O)c3ncccc13)C(=O)N(Cc1ccc(F)cc1)C2 [Compound 44, N-(7-(4-fluorobenzyl)-9-hydroxy-8-oxo-7,8-dihydro-6H-pyrrolo[3,4-g]quinolin-5-yl)-N-methyl-3-(dimethylamino)-propane-1-sulfonamide]
HIV-IIIb
  EC50: < 60 nM
HIV integrase
  IC50: < 60 nM

## CCOC(=O)N(C)c1c2c(c(O)c3ncccc13)C(=O)N(Cc1ccc(F)cc1)C2 [Compound 112, ethyl 7-(4-fluorobenzyl)-9-(hydroxy)-8-oxo-7,8-dihydro-6H-pyrrolo[3,4-g]quinolin-5-yl(methyl)carbamate]
HIV-IIIb
  EC50: < 60 nM
HIV integrase
  IC50: < 60 nM

## CC(=O)N(C)c1c2c(c(O)c3ncccc13)C(=O)N(Cc1ccc(F)cc1)C2 [Compound 64, N-(7-(4-fluorobenzyl)-9-hydroxy-8-oxo-7,8-dihydro-6H-pyrrolo[3,4-g]quinolin-5-yl)-N-methylacetamide]
HIV-IIIb
  EC50: < 60 nM
HIV integrase
  IC50: < 60 nM

## C[C@H]1c2c(c(O)c3ncccc3c2N(C)S(C)(=O)=O)C(=O)N1Cc1ccc(F)cc1 (single isomer, unassigned) [Compound 75]
HIV-IIIb
  EC50: < 60 nM
HIV integrase
  IC50: < 60 nM

## CN(c1c2c(c(O)c3ncccc13)C(=O)N(Cc1cccc(Cl)c1)C2)S(C)(=O)=O [Compound 175, N-(7-(3-chlorobenzyl)-9-hydroxy-8-oxo-7,8-dihydro-6H-pyrrolo[3,4-g]quinolin-5-yl)-N-methylmethanesulfonamide]
HIV-IIIb
  EC50: < 60 nM
HIV integrase
  IC50: 60 to 1000 nM

## O=C1c2c(c(N3C(=O)CCC3=O)c3cccnc3c2O)CN1Cc1ccc(F)cc1 [Compound 226, 1-(7-(4-fluorobenzyl)-9-hydroxy-8-oxo-7,8-dihydro-6H-pyrrolo[3,4-g]quinolin-5-yl)pyrrolidine-2,5-dione]
HIV-IIIb
  EC50: < 60 nM
HIV integrase
  IC50: < 60 nM

## CCN(c1c2c(c(O)c3ncccc13)C(=O)N(Cc1ccc(F)cc1)C2)S(C)(=O)=O [Compound 78, N-ethyl-N-(7-(4-fluorobenzyl)-9-hydroxy-8-oxo-7,8-dihydro-6H-pyrrolo[3,4]quinolin-5-yl)methanesulfonamide]
HIV-IIIb
  EC50: < 60 nM
HIV integrase
  IC50: < 60 nM

## CN(c1c2c(c(O)c3ncccc13)C(=O)N(Cc1cc(Cl)ccc1F)C2)S(C)(=O)=O [Compound 211, N-(7-(5-chloro-2-fluorobenzyl)-9-hydroxy-8-oxo-7,8-dihydro-6H-pyrrolo[3,4-g]quinolin-5-yl)-N-methylmethanesulfonamide]
HIV-IIIb
  EC50: < 60 nM
HIV integrase
  IC50: 60 to 1000 nM

## CN(c1c2c(c(O)c3ncccc13)C(=O)N(Cc1cc(Cl)c(F)cc1F)C2)S(C)(=O)=O [Compound 204, N-(7-(5-chloro-2,4-difluorobenzyl)-9-hydroxy-8-oxo-7,8-dihydro-6H-pyrrolo[3,4-g]quinolin-5-yl)-N-methylmethanesulfonamide]
HIV-IIIb
  EC50: < 60 nM
HIV integrase
  IC50: < 60 nM

## CN(Cc1ccccc1)S(=O)(=O)N(C)c1c2c(c(O)c3ncccc13)C(=O)N(Cc1ccc(F)cc1)C2 [Compound 135, N′-benzyl-N′-methyl-N-(7-(4-fluorobenzyl)-9-hydroxy-8-oxo-7,8-dihydro-6H-pyrrolo[3,4-g]quinolin-5-yl)-N-methylsulfamide]
HIV-IIIb
  EC50: 60 to 1000 nM
HIV integrase
  IC50: 60 to 1000 nM

## CN(c1c2c(c(O)c3ncccc13)C(=O)N(Cc1ccc(F)cc1)C2)S(=O)(=O)c1ccccn1 [Compound 158, N-(7-(4-fluorobenzyl)-9-hydroxy-8-oxo-7,8-dihydro-6H-pyrrolo[3,4-g]quinolin-5-yl)-N-methylpyridine-2-sulfonamide]
HIV-IIIb
  EC50: < 60 nM
HIV integrase
  IC50: 60 to 1000 nM

## CC(C)S(=O)(=O)N(C)c1c2c(c(O)c3ncccc13)C(=O)N(Cc1ccc(F)cc1)C2 [Compound 54, N-(7-(4-fluorobenzyl)-9-hydroxy-8-oxo-7,8-dihydro-6H-pyrrolo[3,4-g]quinolin-5-yl)-N-methylpropane-2-sulfonamide]
HIV-IIIb
  EC50: < 60 nM
HIV integrase
  IC50: 60 to 1000 nM

## CN(c1c2c(c(O)c3ncccc13)C(=O)N(Cc1ccc(Cl)c(Cl)c1)C2)S(C)(=O)=O [Compound 197, N-(7-(3,4-dichlorobenzyl)-9-hydroxy-8-oxo-7,8-dihydro-6H-pyrrolo[3,4-g]quinolin-5-yl)-N-methylmethanesulfonamide]
HIV-IIIb
  EC50: < 60 nM
HIV integrase
  IC50: 60 to 1000 nM

## CCC(CC)OC(=O)OCOc1c2c(c(N(C)S(C)(=O)=O)c3cccnc13)CN(Cc1ccc(F)cc1)C2=O [Compound 32, (7-(4-fluorobenzyl)-5-(N-methylmethan-5-ylsulfonamido)-8-oxo-7,8-dihydro-6H-pyrrolo[3,4-g]quinolin-9-yloxy)methyl pentan-3-yl carbonate]
HIV-IIIb
  EC50: 60 to 1000 nM
HIV integrase
  IC50: > 1000 nM

## CN(c1c2c(c(O)c3ncccc13)C(=O)N(Cc1c(F)ccc(Cl)c1F)C2)S(C)(=O)=O [Compound 185, N-(7-(3-chloro-2,6-difluorobenzyl)-9-hydroxy-8-oxo-7,8-dihydro-6H-pyrrolo[3,4-g]quinolin-5-yl)-N-methylmethanesulfonamide]
HIV-IIIb
  EC50: < 60 nM
HIV integrase
  IC50: 60 to 1000 nM

## CC(C)OC(=O)OCOc1c2c(c(N(C)S(C)(=O)=O)c3cccnc13)CN(Cc1ccc(F)cc1)C2=O [Compound 33, (7-(4-fluorobenzyl)-5-(N-methylmethan-5-ylsulfonamido)-8-oxo-7,8-dihydro-6H-pyrrolo[3,4-g]quinolin-9-yloxy)methyl isopropyl carbonate]
HIV-IIIb
  EC50: < 60 nM
HIV integrase
  IC50: > 1000 nM

## CCOC(=O)N(C)c1c2c(c(O)c3ncccc13)C(=O)N(Cc1ccc(F)cc1)C2(C)C [Compound 115, ethyl 7-(4-fluorobenzyl)-9-hydroxy-6,6-dimethyl-8-oxo-7,8-dihydro-6H-pyrrolo[3,4-g]quinolin-5-yl(methyl)carbamate]
HIV-IIIb
  EC50: > 1000 nM
HIV integrase
  IC50: 60 to 1000 nM

## CN(c1c2c(c(OCOC(=O)OC3CCCC3)c3ncccc13)C(=O)N(Cc1ccc(F)cc1)C2)S(C)(=O)=O [Compound 30, (7-(4-fluorobenzyl)-5-(N-methylmethan-5-ylsulfonamido)-8-oxo-7,8-dihydro-6H-pyrrolo[3,4-g]quinolin-9-yloxy)methyl cyclopentyl carbonate]
HIV-IIIb
  EC50: 60 to 1000 nM
HIV integrase
  IC50: > 1000 nM

## CN(c1c2c(c(O)c3ncccc13)C(=O)N(Cc1ccc(F)cc1F)C2)S(C)(=O)=O [Compound 145, N-(7-(2,4-difluorobenzyl)-9-hydroxy-8-oxo-7,8-dihydro-6H-pyrrolo[3,4-g]quinolin-5-yl)-N-methylmethanesulfonamide]
HIV-IIIb
  EC50: < 60 nM
HIV integrase
  IC50: < 60 nM

## CN(c1c2c(c(O)c3ncccc13)C(=O)N(Cc1ccc(F)cn1)C2)S(C)(=O)=O [Compound 151, N-(7-((5-fluoropyridin-2-yl)methyl)-9-hydroxy-8-oxo-7,8-dihydro-6H-pyrrolo[3,4-g]quinolin-5-yl)-N-methylmethanesulfonamide]
HIV-IIIb
  EC50: 60 to 1000 nM
HIV integrase
  IC50: 60 to 1000 nM

## O=C1c2c(c(N3CCCS3(=O)=O)c3cccnc3c2O)CN1Cc1ccc(F)cc1 [Compound 52, N-(7-(4-fluorobenzyl)-9-hydroxy-8-oxo-7,8-dihydro-6H-pyrrolo[3,4-g]quinolin-5-yl)-N-2-dioxoisothiazolidine]
HIV-IIIb
  EC50: < 60 nM
HIV integrase
  IC50: < 60 nM

## CN(c1c2c(c(O)c3ncccc13)C(=O)N(Cc1c(F)cccc1F)C2)S(C)(=O)=O [Compound 195, N-(7-(2,6-difluorobenzyl)-9-hydroxy-8-oxo-7,8-dihydro-6H-pyrrolo[3,4-g]quinolin-5-yl)-N-methylmethanesulfonamide]
HIV-IIIb
  EC50: 60 to 1000 nM
HIV integrase
  IC50: 60 to 1000 nM

## C[C@@H]1c2c(c(O)c3ncccc3c2N(C)S(C)(=O)=O)C(=O)N1Cc1ccc(F)cc1 (single isomer, unassigned) [Compound 76]
HIV-IIIb
  EC50: < 60 nM
HIV integrase
  IC50: < 60 nM

## COc1cc(F)ccc1CN1Cc2c(c(O)c3ncccc3c2N(C)S(C)(=O)=O)C1=O [Compound 210, N-(7-(4-fluoro-2-methoxybenzyl)-9-hydroxy-8-oxo-7,8-dihydro-6H-pyrrolo[3,4-g]quinolin-5-yl)-N-methylmethanesulfonamide]
HIV-IIIb
  EC50: < 60 nM
HIV integrase
  IC50: 60 to 1000 nM

## CN(c1c2c(c(O)c3ncccc13)C(=O)N(Cc1cc(F)ccc1F)C2)S(C)(=O)=O [Compound 191, N-(7-(2,5-difluorobenzyl)-9-hydroxy-8-oxo-7,8-dihydro-6H-pyrrolo[3,4-g]quinolin-5-yl)-N-methylmethanesulfonamide]
HIV-IIIb
  EC50: < 60 nM
HIV integrase
  IC50: 60 to 1000 nM

## CN(C)C(=O)C(=O)N(C)c1c2c(c(O)c3ncccc13)C(=O)N(Cc1ccc(F)cc1)C2 [Compound 62, N1-(7-(4-fluorobenzyl)-9-hydroxy-8-oxo-7,8-dihydro-6H-pyrrolo[3,4-g]quinolin-5-yl)-N1,N2,N2-trimethyloxalamide]
HIV-IIIb
  EC50: < 60 nM
HIV integrase
  IC50: 60 to 1000 nM

## CN(C)C(=O)N(C)c1c2c(c(O)c3ncccc13)C(=O)N(Cc1ccc(F)cc1)C2 [Compound 171, 1-(7-(4-fluorobenzyl)-9-hydroxy-8-oxo-7,8-dihydro-6H-pyrrolo[3,4-g]quinolin-5-yl)-1,3,3-trimethylurea]
HIV-IIIb
  EC50: < 60 nM
HIV integrase
  IC50: < 60 nM
